Assay results from patent publication US12043599B2, “Herbicidal compounds” (SYNGENTA PARTICIPATIONS AG, priority 2018, dated 2024).

Key:
Assay type in all cases: in vivo
Settings in all cases: 250 g/h, evaluated after 13 days
Setaria faberi (SETFA) [1] = assay: Post-emergence herbicidal glasshouse test, percentage damage
Experimental: (§1) Seeds of a variety of test species are sown in standard soil in pots (Lolium perenne (LOLPE), Setaria faberi (SETFA), Alopecurus myosuroides (ALOMY), Echinochloa crus-galli (ECHCG), Avena fatua (AVEFA)). After cultivation for one day (pre-emergence) or after 8 days cultivation (post-emergence) under controlled conditions in a glasshouse (at 24/16° C., day/night; 14 hours light; 65% humidity), the plants are sprayed with an aqueous spray solution derived from the formulation of the technical active ingredient in acetone/water (50:50) solution containing 0.5% Tween 20 (polyoxyethelyene sorbitan monolaurate, CAS RN 9005-64-5). Compounds are applied at […]. The test plants are then grown in a glasshouse under controlled conditions in a glasshouse (at 24/16° C., day/night; 14 hours light; 65% humidity) and watered twice daily. After 13 days for pre and post-emergence, the test is evaluated for the percentage damage caused to the plant. The biological activities are shown in the following table on a five point scale (5=80-100%; 4=60-79%; 3=40-59%; 2=20-39%; 1=0-19%).
Using procedures outlines above, wheat and barley crop plants and a weed species (SETFA) are treated post-emergence with compound A11 of the present invention or comparator compound C1 (Compound A-38 from WO2014/096289) at the application rates indicated. The compounds were also applied to wheat in conjunction with the safener compound cloquintocet-mexyl (CQC) at 50 g/ha.

[2] = test system: Echinochloa crus-galli (ECHCG); assay: Pre-emergence herbicidal glasshouse test, percentage damage
Experimental: as §1

Lolium perenne (LOLPE) [3] = assay: as above
Experimental: as §1

Setaria faberi (SETFA) [4] = assay: as above
Experimental: as §1

Avena fatua (AVEFA) [5] = assay: as above
Experimental: as §1

[6] = test system: Echinochloa crus-galli (ECHCG); assay: Post-emergence herbicidal glasshouse test, percentage damage
Experimental: as §1

Lolium perenne (LOLPE) [7] = assay: as above
Experimental: as §1

Avena fatua (AVEFA) [8] = assay: as above
Experimental: as §1

| Compound | SETFA POST percentage damage (five point scale) (Setaria faberi (SETFA) [1]) | ECHCG PRE percentage damage (five point scale) [2] | LOLPE PRE percentage damage (five point scale) (Lolium perenne (LOLPE) [3]) | SETFA PRE percentage damage (five point scale) (Setaria faberi (SETFA) [4]) | AVEFA PRE percentage damage (five point scale) (Avena fatua (AVEFA) [5]) | ECHCG POST percentage damage (five point scale) [6] | LOLPE POST percentage damage (five point scale) (Lolium perenne (LOLPE) [7]) | AVEFA POST percentage damage (five point scale) (Avena fatua (AVEFA) [8]) |
| --- | --- | --- | --- | --- | --- | --- | --- | --- |
| CC#Cc1cc(C)c(C2C(=O)CC3(CCN(C(=O)c4nnc(C)o4)CC3)CC2=O)c(C)c1 [Compound A119] | 5 (5=80-100%) | 5 (5=80-100%) | 5 (5=80-100%) | 5 (5=80-100%) | 5 (5=80-100%) | 5 (5=80-100%) | 5 (5=80-100%) | 5 (5=80-100%) |
| CC#Cc1cc(C)c(C2C(=O)CC3(CCN(C(=O)c4cc(OC)ccn4)CC3)CC2=O)c(C)c1 [Compound A120] | 5 (5=80-100%) | 5 (5=80-100%) | 5 (5=80-100%) | 5 (5=80-100%) | 4 (4=60-79%) | 5 (5=80-100%) | 5 (5=80-100%) | 5 (5=80-100%) |
| CC#Cc1cc(C)c(C2C(=O)CC3(CCN(C(=O)c4ccc(OC)cn4)CC3)CC2=O)c(C)c1 [Compound A121] | 5 (5=80-100%) | 5 (5=80-100%) | 5 (5=80-100%) | 5 (5=80-100%) | 4 (4=60-79%) | 5 (5=80-100%) | 5 (5=80-100%) | 5 (5=80-100%) |
| CC#Cc1cc(C)c(C2C(=O)CC3(CCN(C(=O)c4cc(C)nc(C)n4)CC3)CC2=O)c(C)c1 [Compound A122] | 5 (5=80-100%) | 5 (5=80-100%) | 5 (5=80-100%) | 5 (5=80-100%) | 5 (5=80-100%) | 5 (5=80-100%) | 5 (5=80-100%) | 5 (5=80-100%) |
| CC#Cc1cc(C)c(C2C(=O)CC3(CCN(C(=O)c4cocn4)CC3)CC2=O)c(C)c1 [Compound A123] | 5 (5=80-100%) | 5 (5=80-100%) | 5 (5=80-100%) | 5 (5=80-100%) | 5 (5=80-100%) | 5 (5=80-100%) | 5 (5=80-100%) | 5 (5=80-100%) |
| CC#Cc1cc(C)c(C2C(=O)CC3(CCN(C(=O)CCOC)CC3)CC2=O)c(C)c1 [Compound A124] | 5 (5=80-100%) | 5 (5=80-100%) | 5 (5=80-100%) | 5 (5=80-100%) | 5 (5=80-100%) | 5 (5=80-100%) | 5 (5=80-100%) | 5 (5=80-100%) |
| CC#Cc1cc(C)c(C2C(=O)CC3(CCN(C(=O)c4ccnc(F)c4)CC3)CC2=O)c(C)c1 [Compound A125] | 5 (5=80-100%) | 5 (5=80-100%) | 5 (5=80-100%) | 5 (5=80-100%) | 5 (5=80-100%) | 5 (5=80-100%) | 5 (5=80-100%) | 5 (5=80-100%) |
| CC#Cc1cc(C)c(C2C(=O)CC3(CCN(C(=O)c4cnn(C)n4)CC3)CC2=O)c(C)c1 [Compound A126] | 5 (5=80-100%) | 5 (5=80-100%) | 5 (5=80-100%) | 5 (5=80-100%) | 5 (5=80-100%) | 5 (5=80-100%) | 5 (5=80-100%) | 5 (5=80-100%) |
| CC#Cc1cc(C)c(C2C(=O)CC3(CCN(C(=O)c4cnc(C)cn4)CC3)CC2=O)c(C)c1 [Compound A127] | 5 (5=80-100%) | 5 (5=80-100%) | 5 (5=80-100%) | 5 (5=80-100%) | 5 (5=80-100%) | 5 (5=80-100%) | 5 (5=80-100%) | 5 (5=80-100%) |
| CC#Cc1cc(C)c(C2C(=O)CC3(CCN(C(=O)C4CCCOC4)CC3)CC2=O)c(C)c1 (centres unmarked) [Compound A128] | 4 (4=60-79%) | 5 (5=80-100%) | 5 (5=80-100%) | 5 (5=80-100%) | 3 (3=40-59%) | 5 (5=80-100%) | 5 (5=80-100%) | 5 (5=80-100%) |
| CC#Cc1cc(C)c(C2C(=O)CC3(CCN(C(=O)C4CCOC4)CC3)CC2=O)c(C)c1 (centres unmarked) [Compound A129] | 5 (5=80-100%) | 5 (5=80-100%) | 5 (5=80-100%) | 5 (5=80-100%) | 5 (5=80-100%) | 5 (5=80-100%) | 5 (5=80-100%) | 5 (5=80-100%) |
| CC#Cc1cc(C)c(C2C(=O)CC3(CCN(C(=O)c4ccc(OC)nn4)CC3)CC2=O)c(C)c1 [Compound A132] | 5 (5=80-100%) | 5 (5=80-100%) | 5 (5=80-100%) | 5 (5=80-100%) | 5 (5=80-100%) | 5 (5=80-100%) | 5 (5=80-100%) | 5 (5=80-100%) |
| CC#Cc1cc(C)c(C2C(=O)CC3(CCN(C(=O)C4COCCO4)CC3)CC2=O)c(C)c1 (centres unmarked) [Compound A133] | 5 (5=80-100%) | 5 (5=80-100%) | 5 (5=80-100%) | 5 (5=80-100%) | 5 (5=80-100%) | 5 (5=80-100%) | 5 (5=80-100%) | 5 (5=80-100%) |
